Measured values published in patent US20260234150A1, “COMPOUND FOR INHIBITING NLRP3, PREPARATION METHOD, AND USE” (DOVETREE MEDICINES UNUS, INC., priority 2023, published 2026).
Like-named read-outs stand apart in the source and are kept apart here.

What was measured:
[1] = Pharmacokinetic evaluation in rats; format: in vivo; conditions: rat, plasma, SD male rats
Method: Purpose: The test animals were SD male rats. The LC-MS/MS method was used to quantitatively determine the drug concentration in the plasma of rats at different time points after intravenous injection or oral administration of the test compound to evaluate the pharmacokinetic characteristics of the test drug in rats.
SD rats (male, 160-300 g, 5-10 weeks old, Shanghai Xipu-Bikai Experimental Animal Co., Ltd.)
The clear solution of the test compound was injected into SD rats via the tail vein (without fasting) (vehicle: 5% DMSO/10% Solutol/85% Saline), and the clear solution of the test compound was administered to SD rats by gavage (fasting for 10-14 h, free access to water) (vehicle: 5% DMSO/10% Solutol/85% Saline). For intravenous administration, blood was collected from the jugular vein at 0.033, 0.083, 0.25, 0.5, 1, 2, 4, 8, and 24 hrs after administration, placed in an EDTA-K2 anticoagulant tube (Jiangsu Kangjian Medical Supplies Co., Ltd.), mixed, and centrifuged at 2-8° C., 6800 g for 6 minutes to obtain plasma; for oral gavage administration, blood was collected from the jugular vein at 0.083, 0.25, 0.5, 1, 2, 4, 6, 8, and 24 hrs after administration, placed in an EDTA-K2 anticoagulant tube (Jiangsu Kangjian Medical Supplies Co., Ltd.), mixed, and centrifuged at 2-8° C., 6800 g for 6 minutes to obtain plasma. The plasma concentration was determined by LC-MS/MS, and the relevant pharmacokinetic parameters were calculated by the non-compartmental linear logarithmic trapezoidal method using Phoenix WinNonlinTM Version 7.0 (Pharsight, USA) pharmacokinetic software. The compounds of the present disclosure have good pharmacokinetic characteristics in rats.

[2] = molecular target: T1, CYP3A4 (Homo sapiens, UniProt P08684); experiment: CYP450 enzyme inhibition in human liver microsomes, CYP3A4; format: in vitro ADME
T1 construct: 0.05 mg/mL liver microsome (BioIVT, IHG) phosphate buffer solution; tissue BioIVT IHG; host or cells: human liver microsomes
T1 sequence (P08684 whole entry): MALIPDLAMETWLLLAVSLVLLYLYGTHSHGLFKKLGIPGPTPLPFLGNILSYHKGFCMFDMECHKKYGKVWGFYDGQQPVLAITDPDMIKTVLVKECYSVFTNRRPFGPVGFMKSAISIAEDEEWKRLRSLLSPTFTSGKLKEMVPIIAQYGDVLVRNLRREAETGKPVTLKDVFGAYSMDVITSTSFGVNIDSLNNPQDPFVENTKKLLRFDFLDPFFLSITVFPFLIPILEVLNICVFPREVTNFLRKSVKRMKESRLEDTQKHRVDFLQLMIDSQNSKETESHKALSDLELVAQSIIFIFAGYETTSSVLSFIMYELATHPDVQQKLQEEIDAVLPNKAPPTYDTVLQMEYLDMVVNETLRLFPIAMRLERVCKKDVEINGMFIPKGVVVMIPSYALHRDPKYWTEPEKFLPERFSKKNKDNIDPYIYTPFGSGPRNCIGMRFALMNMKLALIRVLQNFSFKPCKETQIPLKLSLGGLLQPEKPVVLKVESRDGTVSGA
Method: (§1) This experiment incubates the compound, liver microsomes and different CYP subtype enzyme substrates in a 37° C. water bath to measure the amount of substrate metabolites produced and evaluate the inhibitory effect of the compound of the present disclosure on CYP enzymes based on the IC50 value.
(§2) i. The compound was diluted to 0, 0.02 mM, 0.06 mM, 0.2 mM, 0.6 mM, 2 mM and 6 mM concentrations with DMSO (Aladdin, catalog number: D103273-500 ml).
(§3) ii. The enzyme substrate solutions of each CYP subtype were prepared by phosphate buffer (sigma: V900050-500G).
(§4) iii. Sample incubation. […] After centrifugation at 4000 rpm and 4° C. for 40 min, the supernatant was diluted with pure water according to the response of the substrate metabolites and then detected by UPLC-MS/MS (Sciex, Q-Trap 4500). […]
(§5) The inhibitory effect of the compound on each P450 enzyme in human liver microsomes was calculated as the percentage of reduced metabolite formation compared with the non-inhibitory control (i.e., blank DMSO). The IC50 value for each P450 enzyme in human liver microsomes was calculated using the logarithm of the remaining activity and the inhibitor concentration using Graphpad Prism software. […]

[3] = molecular target: T2, CYP2C19 (Homo sapiens, UniProt P33261); experiment: CYP450 enzyme inhibition in human liver microsomes, CYP2C19; format: in vitro ADME; conditions: substrate Mephenytoin, read-out: Inhibitory activity IC50 (μM) CYP2C19
T2 construct: (CYP2C19 uses 0.2 mg/mL liver microsome); tissue BioIVT IHG; host or cells: human liver microsomes
T2 sequence (P33261 whole entry): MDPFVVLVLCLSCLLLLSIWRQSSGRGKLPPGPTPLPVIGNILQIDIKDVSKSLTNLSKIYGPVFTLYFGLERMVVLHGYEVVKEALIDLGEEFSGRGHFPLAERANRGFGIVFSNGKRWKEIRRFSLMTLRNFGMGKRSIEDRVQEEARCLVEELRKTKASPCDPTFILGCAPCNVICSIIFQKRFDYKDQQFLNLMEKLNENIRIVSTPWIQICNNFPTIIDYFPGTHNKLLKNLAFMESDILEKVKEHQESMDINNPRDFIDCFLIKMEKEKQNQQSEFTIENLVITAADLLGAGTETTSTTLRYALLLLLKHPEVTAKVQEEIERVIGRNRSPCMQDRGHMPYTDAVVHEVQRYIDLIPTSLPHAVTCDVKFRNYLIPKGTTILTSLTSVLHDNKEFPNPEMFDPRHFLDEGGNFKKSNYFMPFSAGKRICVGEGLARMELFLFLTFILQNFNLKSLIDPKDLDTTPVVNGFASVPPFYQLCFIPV
Method: as §1, §2, §3, §4, §5

**Q.** With `CC(=O)N1CCOC[C@H]1CNc1nc2nc(-c3c(C)cc(C(F)(F)F)cc3O)ccc2o1` [Compound 111] as the compound, how does the clearance ([1]; 1 mg/kg, Dosage IV/PO 1/3 mg/kg) read?
**A.** The clearance was 5.78 mL/min/kg.

**Q.** What about the Vd ([1]; 1 mg/kg, Dosage IV/PO 1/3 mg/kg, read-out: Vdss) of the same compound?
**A.** The Vd was 1.02 L/kg.

**Q.** And the Cmax ([1]; Dosage IV/PO 1/3 mg/kg)?
**A.** Its Cmax is 1390 ng/mL.

**Q.** And the bioavailability ([1]; Dosage IV/PO 1/3 mg/kg)?
**A.** The bioavailability was 94%.

**Q.** What about the AUC(0-t) ([1]; IV 1 mg/kg, read-out: AUC0-last IV) of the same compound?
**A.** Its AUC(0-t) is 2880 ng·h/mL.

**Q.** And the half-life ([1]; IV 1 mg/kg, read-out: T1/2 (IV, h) (converted))?
**A.** Its half-life is 3.36 h.

**Q.** And the AUC(0-t) ([1]; PO 3 mg/kg, read-out: AUC0-last PO)?
**A.** Its AUC(0-t) is 8120 ng·h/mL.

**Q.** What about the IC50 ([2]; substrate Midazolam, read-out: Inhibitory activity IC50 (μM) CYP3A4-M) of the same compound?
**A.** Its IC50 is 28.7 µM.

**Q.** What about the IC50 ([2]; substrate Testosterone, read-out: Inhibitory activity IC50 (μM) CYP3A4-T) of the same compound?
**A.** The IC50 was > 30 µM.

**Q.** What about the IC50 [3] of the same compound?
**A.** The IC50 was > 30 µM.
